Laboratory results published in patent publication US8252723B2, “Substituted 1-(3-pyridinyl)pyrazol-4-ylacetic acids, processes for their preparation and their use as herbicides and plant growth regulators” (Bayer CropScience AG, priority 2006, dated 2012).

Each molecule was assayed on summer wheat of the cultivar 'Triso' (assay: Plant growth regulation test: culm stabilization of crop plants). Details: application rate of 30 to 300 g of active substance per hectare, treated at stage BBCH 31, culm length measured after ears had formed.
Format: in vivo
Method: With stirring, the compound of the formula (I) in question was, in the form of a water-dispersible powder, together with a surfactant (customary adjuvant at an application rate of 1 l/ha), mixed with water such that a homogenous spray liquor was formed, and applied at an application rate of 300 l of water/ha (converted).
Seeds of summer wheat of the cultivar ‘Triso’ were sown at a depth of 1 cm in plant pots and cultivated outdoors until treatment.
The plants were treated on a laboratory track sprayer with spray liquors of the test substances at macrostage 3 after having reached about 10% of the maximum longitudinal growth typical for the cultivar (stage BBCH 31) and, after the treatment, returned outdoors.
After the ears had formed, the length of the culms were measured. The culm stabilization was evaluated as a percentage of the untreated control.

For `CCOC(=O)Cc1c(C)nn(-c2cnccc2C)c1-c1ccc(Cl)cc1` [Example 3-1], which “longitudinal growth (culm length) of summer wheat” value (“longitudinal growth (culm length)” below) is on record?
Its value is “effectively shortened”.

`Cc1ccc(-c2c(CC(=O)O)c(C)nn2-c2cccnc2)s1` [Example 1-61] was tested. Which “longitudinal growth (culm length)” value did it give?
The value was “effectively shortened”.

How did the “longitudinal growth (culm length)” value turn out when `COC(=O)Cc1c(C)nn(-c2cccnc2)c1-c1cccs1` [Example 2-57] was run?
The value was “effectively shortened”.

How did the “longitudinal growth (culm length)” value turn out when `Cc1nn(-c2cccnc2)c(-c2ccc(C(F)(F)F)cn2)c1CC(=O)O` [Example 1-144] was run?
The value was “effectively shortened”.

For `COC(=O)Cc1c(C)nn(-c2cnccc2C)c1-c1cccc(C)c1` [Example 2-38], which “longitudinal growth (culm length)” value is on record?
The value was “effectively shortened”.

For `Cc1nn(-c2cccnc2)c(-c2ccsc2)c1CC(=O)O` [Example 1-63], which “longitudinal growth (culm length)” value is on record?
The value was “effectively shortened”.

Which “longitudinal growth (culm length)” value does the source give for `Cc1ccncc1-n1nc(C)c(CC(=O)O)c1-c1ccc(C(=O)O)cc1` [Example 1-39] here?
The value was “effectively shortened”.

Which “longitudinal growth (culm length)” value does the source give for `Cc1nn(-c2cnccc2Cl)c(-c2ccccc2)c1CC(=O)O` [Example 1-30] here?
The value was “effectively shortened”.

With `Cc1nn(-c2cccnc2)c(-c2ccc(Cl)c(Cl)c2)c1CC(=O)O` [Example 1-27] as the molecule, how does the “longitudinal growth (culm length)” value read?
Its value is “effectively shortened”.

With `Cc1nn(-c2cccnc2)c(-c2ccccc2)c1CC(=O)OCc1ccccc1` [Example 3-50] as the molecule, how does the “longitudinal growth (culm length)” value read?
Its value is “effectively shortened”.

With `COC(=O)Cc1c(C)nn(-c2cnccc2C)c1-c1cccc(Br)c1` [Example 2-40] as the molecule, how does the “longitudinal growth (culm length)” value read?
Its value is “effectively shortened”.

How did the “longitudinal growth (culm length)” value turn out when `O=C(O)Cc1c(C2CC2)nn(-c2cccnc2)c1-c1ccc(Cl)cc1` [Example 1-146] was run?
The value was “effectively shortened”.

`COC(=O)Cc1c(C)nn(-c2cnccc2C)c1-c1cc(Cl)cc(Cl)c1` [Example 2-68] was tested. Which “longitudinal growth (culm length)” value did it give?
The value was “effectively shortened”.

With `C=C(Cl)COC(=O)Cc1cnn(-c2cccnc2)c1-c1ccccc1` [Example 3-207] as the molecule, how does the “longitudinal growth (culm length)” value read?
Its value is “effectively shortened”.

Which “longitudinal growth (culm length)” value does the source give for `Cc1nn(-c2cccnc2)c(-c2ccc(F)cc2)c1CC(=O)OCC1CC1` [Example 3-91] here?
The value was “effectively shortened”.

With `COC(=O)Cc1c(C)nn(-c2cccnc2)c1-c1ccc(C)nc1` [Example 2-128] as the molecule, how does the “longitudinal growth (culm length)” value read?
The value was “effectively shortened”.

`Cc1ncccc1-n1nc(C)c(CC(=O)O)c1-c1ccccc1` [Example 1-135] was tested. Which “longitudinal growth (culm length)” value did it give?
Its value is “effectively shortened”.

Which “longitudinal growth (culm length)” value does the source give for `Cc1ccncc1-n1nc(C)c(CC(=O)O)c1-c1cccc(Cl)c1` [Example 1-21] here?
Its value is “effectively shortened”.

Which “longitudinal growth (culm length)” value does the source give for `COC(=O)Cc1c(C)nn(-c2cccnc2)c1-c1ccc(C)cn1` [Example 2-113] here?
The value was “effectively shortened”.

For `COC(=O)Cc1cnn(-c2cnccc2C)c1-c1ccc(Cl)cc1` [Example 2-133], which “longitudinal growth (culm length)” value is on record?
The value was “effectively shortened”.

With `Cc1ccncc1-n1nc(C)c(CC(=O)O)c1-c1ccc(Cl)s1` [Example 1-55] as the molecule, how does the “longitudinal growth (culm length)” value read?
The value was “effectively shortened”.

Which “longitudinal growth (culm length)” value does the source give for `Cc1ccncc1-n1nc(C)c(CC(=O)O)c1-c1ccccn1` [Example 1-132] here?
Its value is “effectively shortened”.

For `COC(=O)Cc1c(C)nn(-c2cnccc2SC)c1-c1ccccc1` [Example 2-44], which “longitudinal growth (culm length)” value is on record?
Its value is “effectively shortened”.

How did the “longitudinal growth (culm length)” value turn out when `COC(=O)Cc1cnn(-c2cnccc2C)c1-c1ccccc1` [Example 2-73] was run?
The value was “effectively shortened”.

With `Cc1nn(-c2cccnc2)c(-c2ccc(Cl)cc2)c1CC(=O)O` [Example 1-26] as the molecule, how does the “longitudinal growth (culm length)” value read?
The value was “effectively shortened”.

How did the “longitudinal growth (culm length)” value turn out when `COC(=O)Cc1c(C)nn(-c2cccnc2)c1-c1cccnc1` [Example 2-125] was run?
The value was “effectively shortened”.

For `Cc1nn(-c2cccnc2)c(-c2ccccc2)c1CC(=O)OCC#CCCl` [Example 3-109], which “longitudinal growth (culm length)” value is on record?
The value was “effectively shortened”.

For `C=C(C)COC(=O)Cc1c(C)nn(-c2cccnc2)c1-c1ccccc1` [Example 3-156], which “longitudinal growth (culm length)” value is on record?
Its value is “effectively shortened”.

With `Cc1nn(-c2cccnc2)c(-c2ccc(Cl)cc2)c1CC(=O)OCC1CC1` [Example 3-78] as the molecule, how does the “longitudinal growth (culm length)” value read?
The value was “effectively shortened”.

Which “longitudinal growth (culm length)” value does the source give for `Cc1nn(-c2cccnc2)c(-c2ccco2)c1CC(=O)O` [Example 1-4] here?
Its value is “effectively shortened”.

`Cc1nn(-c2cccnc2)c(-c2ccccn2)c1CC(=O)OCC1CCCO1` (centres unmarked) [Example 3-230] was tested. Which “longitudinal growth (culm length)” value did it give?
Its value is “effectively shortened”.

`Cc1nn(-c2cccnc2)c(-c2cccs2)c1CC(=O)O` [Example 1-57] was tested. Which “longitudinal growth (culm length)” value did it give?
The value was “effectively shortened”.

Which “longitudinal growth (culm length)” value does the source give for `COC(=O)Cc1c(C)nn(-c2cccnc2)c1-c1sccc1C` [Example 2-58] here?
Its value is “effectively shortened”.

How did the “longitudinal growth (culm length)” value turn out when `Cc1cncc(-n2nc(C)c(CC(=O)O)c2-c2ccc(Cl)cc2)c1` [Example 1-51] was run?
Its value is “effectively shortened”.

How did the “longitudinal growth (culm length)” value turn out when `COC(=O)Cc1c(C)nn(-c2cccnc2)c1-c1ccc(Cl)cn1` [Example 2-110] was run?
Its value is “effectively shortened”.

How did the “longitudinal growth (culm length)” value turn out when `Cc1nn(-c2cccnc2)c(-c2ccc(C(F)(F)F)cc2)c1CC(=O)O` [Example 1-28] was run?
Its value is “effectively shortened”.

With `COC(=O)Cc1c(C)nn(-c2cccnc2)c1-c1ccc(C)s1` [Example 2-61] as the molecule, how does the “longitudinal growth (culm length)” value read?
The value was “effectively shortened”.

With `COC(=O)Cc1c(C)nn(-c2cnccc2C)c1-c1sccc1C` [Example 2-53] as the molecule, how does the “longitudinal growth (culm length)” value read?
Its value is “effectively shortened”.

For `Cc1nn(-c2cccnc2)c(-c2ccc(Cl)cc2)c1CC(=O)OCC1CCCCC1` [Example 3-177], which “longitudinal growth (culm length)” value is on record?
Its value is “effectively shortened”.

With `COC(=O)Cc1c(C)nn(-c2cnccc2C)c1-c1cccc(Cl)c1` [Example 2-21] as the molecule, how does the “longitudinal growth (culm length)” value read?
The value was “effectively shortened”.

`COC(=O)Cc1c(C)nn(-c2cccnc2)c1-c1ccc(Cl)c(C)c1` [Example 2-123] was tested. Which “longitudinal growth (culm length)” value did it give?
The value was “effectively shortened”.

For `COC(=O)Cc1c(C)nn(-c2cccnc2C)c1-c1ccccc1` [Example 2-135], which “longitudinal growth (culm length)” value is on record?
The value was “effectively shortened”.

`COC(=O)Cc1cnn(-c2cccnc2)c1-c1ccccc1` [Example 2-72] was tested. Which “longitudinal growth (culm length)” value did it give?
Its value is “effectively shortened”.

Which “longitudinal growth (culm length)” value does the source give for `Cc1ccc(-n2nc(C)c(CC(=O)O)c2-c2ccccc2)c(C)n1` [Example 1-11] here?
Its value is “effectively shortened”.

`COC(=O)Cc1c(C)nn(-c2cccnc2)c1-c1ccc(OC)nc1` [Example 2-62] was tested. Which “longitudinal growth (culm length)” value did it give?
The value was “effectively shortened”.

`COCCOC(=O)Cc1c(C)nn(-c2cccnc2)c1-c1ccc(Cl)cc1` [Example 3-229] was tested. Which “longitudinal growth (culm length)” value did it give?
Its value is “effectively shortened”.

With `C#CCOC(=O)Cc1cnn(-c2cccnc2)c1-c1ccccc1` [Example 3-64] as the molecule, how does the “longitudinal growth (culm length)” value read?
Its value is “effectively shortened”.

How did the “longitudinal growth (culm length)” value turn out when `C=CCCOC(=O)Cc1c(C)nn(-c2cccnc2)c1-c1ccccc1` [Example 3-180] was run?
Its value is “effectively shortened”.

How did the “longitudinal growth (culm length)” value turn out when `COC(=O)Cc1c(C)nn(-c2cnccc2C)c1-c1ccc(OC)cc1` [Example 2-13] was run?
The value was “effectively shortened”.

`Cc1ccsc1-c1c(CC(=O)O)c(C)nn1-c1cccnc1` [Example 1-58] was tested. Which “longitudinal growth (culm length)” value did it give?
Its value is “effectively shortened”.
